Values joined by “and” are separate entries in the source; they are usually repeats but may differ in a detail not shown here. Identical values can stand only once.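 96-well plates; 48 h exposure; 5 concentrations. Endpoints by linear interpolation between flanking doses. Not reached: highest tested concentration assigned. GI50 = concentration required for 50% inhibition of growth. TGI marks complete inhibition of growth.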
How the values were obtained:
Test in all cases: NCI tumour cell line growth inhibition, 48 h
HOP-92 NSCLC = test system: HOP-92 NSCLC
HS 578T breast = test system: HS 578T breast
K-562 leukemia = test system: K-562 leukemia
MOLT-4 leukemia = test system: MOLT-4 leukemia
SF-539 CNS = test system: SF-539 CNS
SK-MEL-28 melanoma = test system: SK-MEL-28 melanoma
UACC-62 melanoma = test system: UACC-62 melanoma
UO-31 renal = test system: UO-31 renal

## Cc1c(C(=O)Nc2ccc(N3C[C@@H](C)O[C@@H](C)C3)nc2)cccc1-c1ccc(OC(F)(F)F)cc1
HOP-92 NSCLC
  GI50: 2.51 µM and 1.79 µM
  TGI: 13.7 µM and 13 µM
HS 578T breast
  GI50: 9.09 µM and 14.1 µM
  TGI: 49.3 µM and 43.8 µM
K-562 leukemia
  GI50: 3.44 µM and 3.16 µM
  TGI: > 100 µM
MOLT-4 leukemia
  GI50: 7.59 µM and 8.47 µM
  TGI: > 100 µM
SF-539 CNS
  GI50: 6.74 µM and 10.5 µM
  TGI: 22 µM and 27.3 µM
SK-MEL-28 melanoma
  GI50: 12.9 µM and 16.8 µM
  TGI: 33.6 µM and 40.1 µM
UACC-62 melanoma
  GI50: 9.08 µM and 12.7 µM
  TGI: 27.6 µM and 35.7 µM
UO-31 renal
  GI50: 3.52 µM and 8.63 µM
  TGI: 19 µM and 27 µM

## Cc1cc(I)cc(CN(C)CCCN2CCC(C)CC2)c1O
HOP-92 NSCLC
  GI50: 6.62 µM
  TGI: 21.5 µM
HS 578T breast
  GI50: 12.1 µM
  TGI: 26.2 µM
K-562 leukemia
  GI50: 10.9 µM
  TGI: 35.7 µM
MOLT-4 leukemia
  GI50: 10 µM
  TGI: 26.4 µM
SF-539 CNS
  GI50: 14 µM
  TGI: 27.5 µM
SK-MEL-28 melanoma
  GI50: 12.1 µM
  TGI: 24.5 µM
UACC-62 melanoma
  GI50: 14.2 µM
  TGI: 30.4 µM
UO-31 renal
  GI50: 11.4 µM
  TGI: 24.8 µM

## c1ccc2c(N=NSc3ncnc4nc[nH]c34)c3ccccc3nc2c1
HOP-92 NSCLC
  GI50: 1.79 µM
  TGI: 4.77 µM
HS 578T breast
  GI50: 2.6 µM
  TGI: 7.21 µM
K-562 leukemia
  GI50: 1.58 µM
  TGI: 11.1 µM
MOLT-4 leukemia
  GI50: 0.454 µM
  TGI: 4.83 µM
SF-539 CNS
  GI50: 1.1 µM
  TGI: 3.55 µM
SK-MEL-28 melanoma
  GI50: 1.78 µM
  TGI: 3.71 µM
UACC-62 melanoma
  GI50: 1.1 µM
  TGI: 2.63 µM
UO-31 renal
  GI50: 1.09 µM
  TGI: 3.99 µM

## Clc1cnc(Nc2ccc(OCCN3CCCC3)cc2)nc1NCc1ccco1
HOP-92 NSCLC
  GI50: 1.14 µM
  TGI: 6.6 µM
HS 578T breast
  GI50: 1.39 µM
  TGI: 5.18 µM
K-562 leukemia
  GI50: 3.19 µM
  TGI: 52.6 µM
MOLT-4 leukemia
  GI50: 1.86 µM
  TGI: 8.4 µM
SF-539 CNS
  GI50: 1.67 µM
  TGI: 3.64 µM
SK-MEL-28 melanoma
  GI50: 3.29 µM
  TGI: 10.7 µM
UACC-62 melanoma
  GI50: 1.83 µM
  TGI: 3.73 µM
UO-31 renal
  GI50: 1.87 µM
  TGI: 11.6 µM

## CN1CCN(Cc2ccc(NC(=O)c3cncc(C#Cc4ccc(N)nc4)c3)cc2C(F)(F)F)CC1
HOP-92 NSCLC
  GI50: 0.408 µM
  TGI: 1.76 µM
HS 578T breast
  GI50: 0.486 µM
  TGI: 2.16 µM
K-562 leukemia
  GI50: 0.005 µM
  TGI: 5.54 µM
MOLT-4 leukemia
  GI50: 1.03 µM
  TGI: 6.82 µM
SF-539 CNS
  GI50: 0.501 µM
  TGI: 1.66 µM
SK-MEL-28 melanoma
  GI50: 1.47 µM
  TGI: 5.54 µM
UACC-62 melanoma
  GI50: 0.945 µM
  TGI: 3.48 µM
UO-31 renal
  GI50: 0.716 µM
  TGI: 2.93 µM

## Cc1ccsc1C(NC(=O)c1ccccc1)c1cc(Cl)c2cccnc2c1O (centres undefined)
HOP-92 NSCLC
  GI50: 0.442 µM
  TGI: 7.45 µM
HS 578T breast
  GI50: 0.379 µM
  TGI: 19.7 µM
K-562 leukemia
  GI50: 0.381 µM
  TGI: > 100 µM
MOLT-4 leukemia
  GI50: 0.622 µM
  TGI: 34.6 µM
SF-539 CNS
  GI50: 0.479 µM
  TGI: 10.4 µM
SK-MEL-28 melanoma
  GI50: 0.688 µM
  TGI: 18.9 µM
UACC-62 melanoma
  GI50: 0.339 µM
  TGI: 5.22 µM
UO-31 renal
  GI50: 0.334 µM
  TGI: 2.51 µM

## CN1C(=O)N(C)C2C1NC(=S)N2/N=C/C=C/c1ccccc1[N+](=O)[O-] (centres undefined)
HOP-92 NSCLC
  GI50: 57.7 µM
  TGI: > 100 µM
HS 578T breast
  GI50: 0.646 µM
  TGI: > 100 µM
MOLT-4 leukemia
  GI50: 0.992 µM
  TGI: > 100 µM
SF-539 CNS
  GI50: 0.537 µM
  TGI: 8.44 µM
SK-MEL-28 melanoma
  GI50: 3.7 µM
  TGI: > 100 µM
UACC-62 melanoma
  GI50: 0.419 µM
  TGI: > 100 µM
UO-31 renal
  GI50: 3.86 µM
  TGI: > 100 µM

## Nc1nc(-c2ccc3c(c2)/C(=C\c2cc(Br)c(O)c(Br)c2)C(=O)N3)cs1
HOP-92 NSCLC
  GI50: 9.19 µM
  TGI: > 25 µM
HS 578T breast
  GI50: 9.98 µM
  TGI: > 25 µM
K-562 leukemia
  GI50: 10.6 µM
  TGI: > 25 µM
MOLT-4 leukemia
  GI50: 16.2 µM
  TGI: > 25 µM
SF-539 CNS
  GI50: 11.9 µM
  TGI: > 25 µM
SK-MEL-28 melanoma
  GI50: 7.99 µM
  TGI: > 25 µM
UACC-62 melanoma
  GI50: 6.89 µM
  TGI: 23.7 µM
UO-31 renal
  GI50: 19.1 µM
  TGI: > 25 µM

## CCC[CH2][Sn]1([CH2]CCC)[O]C(=O)c2cccc([N+](=O)[O-])c2C(=O)[O]1
HOP-92 NSCLC
  GI50: 0.228 µM
  TGI: 1.66 µM
HS 578T breast
  GI50: 0.907 µM
  TGI: 3.73 µM
MOLT-4 leukemia
  GI50: 0.409 µM
  TGI: 2.98 µM
SF-539 CNS
  GI50: 0.497 µM
  TGI: 1.73 µM
SK-MEL-28 melanoma
  GI50: 0.465 µM
  TGI: 1.43 µM
UACC-62 melanoma
  GI50: 0.381 µM
  TGI: 1.5 µM
UO-31 renal
  GI50: 0.329 µM
  TGI: 1.41 µM

## O=[N+]([O-])c1ccc2c(c1)C(N1CCN(CCO)CC1)Cc1ccc(F)cc1S2 (centres undefined)
HS 578T breast
  TGI: 26.1 µM
K-562 leukemia
  TGI: 12.6 µM
MOLT-4 leukemia
  TGI: 9.21 µM
SF-539 CNS
  TGI: 22.6 µM
SK-MEL-28 melanoma
  TGI: 6.06 µM
UACC-62 melanoma
  TGI: 12.3 µM
UO-31 renal
  TGI: 18.1 µM

## C[C@]12CCC(=O)C=C1C[C@@H](O)[C@@H]1[C@@H]2CC[C@@]2(C)[C@H]1CC[C@]2(C)O
HOP-92 NSCLC
  TGI: > 100 µM
HS 578T breast
  TGI: > 100 µM
K-562 leukemia
  TGI: > 100 µM
SK-MEL-28 melanoma
  TGI: > 100 µM
UACC-62 melanoma
  TGI: > 100 µM
UO-31 renal
  TGI: > 100 µM

## NC1CC(=O)c2c(-c3cccs3)sc(-c3cccs3)c21 (centres undefined)
HOP-92 NSCLC
  GI50: 16.6 µM
  TGI: 66.2 µM
HS 578T breast
  GI50: 36.7 µM
  TGI: > 100 µM
K-562 leukemia
  GI50: 25 µM
  TGI: > 100 µM
MOLT-4 leukemia
  GI50: 18.5 µM
  TGI: > 100 µM
SF-539 CNS
  GI50: 21.3 µM
  TGI: 47.6 µM
SK-MEL-28 melanoma
  GI50: 19.2 µM
  TGI: 39.7 µM
UACC-62 melanoma
  GI50: 55.9 µM
  TGI: > 100 µM
UO-31 renal
  GI50: 24.7 µM
  TGI: > 100 µM

## CN(C(=O)C(C)(C)C)c1ccccc1I(=O)=O
HOP-92 NSCLC
  GI50: 15.9 µM
  TGI: 96.7 µM
HS 578T breast
  GI50: > 100 µM
  TGI: > 100 µM
K-562 leukemia
  GI50: 14.1 µM
  TGI: 35.5 µM
MOLT-4 leukemia
  GI50: 3.45 µM
  TGI: > 100 µM
SF-539 CNS
  GI50: > 100 µM
  TGI: > 100 µM
SK-MEL-28 melanoma
  GI50: 92.5 µM
  TGI: > 100 µM
UACC-62 melanoma
  GI50: > 100 µM
  TGI: > 100 µM
UO-31 renal
  GI50: > 100 µM
  TGI: > 100 µM

## C=C1C(=O)O[C@@H]2/C=C(/C)[C@@H](OC(C)=O)C[C@@H](O)/C(C)=C\[C@@H](OC(=O)[C@]3(C)O[C@@H]3C)[C@@H]12
HOP-92 NSCLC
  TGI: 26.7 µM
HS 578T breast
  TGI: > 100 µM
K-562 leukemia
  TGI: 17.5 µM
MOLT-4 leukemia
  TGI: 20.7 µM
SF-539 CNS
  TGI: 46.5 µM
SK-MEL-28 melanoma
  TGI: 23.2 µM
UACC-62 melanoma
  TGI: 31.9 µM

## COC(=O)C1=C(C)NC(=S)NC1c1ccc(N(CCCl)CCCl)cc1Cl (centres undefined)
HOP-92 NSCLC
  TGI: > 100 µM
HS 578T breast
  TGI: > 100 µM
K-562 leukemia
  TGI: > 57.5 µM
MOLT-4 leukemia
  TGI: 40 µM
SF-539 CNS
  TGI: > 100 µM
SK-MEL-28 melanoma
  TGI: > 100 µM
UACC-62 melanoma
  TGI: 16.1 µM
UO-31 renal
  TGI: > 80.7 µM

## Nc1nc(N)c2c(ccc3c2ccn3Cc2cccc([N+](=O)[O-])c2)n1
HOP-92 NSCLC
  TGI: 3.05 µM and 1.05 µM
HS 578T breast
  GI50: 1.61 µM
  TGI: 3.38 µM
K-562 leukemia
  TGI: 21.6 µM
MOLT-4 leukemia
  GI50: 0.0704 µM and 0.0621 µM
  TGI: 2.49 µM
SF-539 CNS
  GI50: 0.0454 µM
  TGI: 1.64 µM
SK-MEL-28 melanoma
  GI50: 1.04 µM and 1.02 µM
  TGI: 2.36 µM and 2.2 µM
UACC-62 melanoma
  GI50: 0.0306 µM
  TGI: 1.39 µM
UO-31 renal
  GI50: 0.043 µM
  TGI: 0.806 µM

Source: PubChem BioAssay (NCI)
